Source: publication PMC3593989 (Biochimica et biophysica acta, 2013)

Assays:
[1] = target: T1, acyl-CoA synthetase 4 (Acsl4) (Rattus norvegicus, UniProt O35547); format: biochemical
[2] = target: T1, acyl-CoA synthetase 4 (Acsl4); format: biochemical; remark: listed apart in the source

T1 sequence (O35547 whole entry): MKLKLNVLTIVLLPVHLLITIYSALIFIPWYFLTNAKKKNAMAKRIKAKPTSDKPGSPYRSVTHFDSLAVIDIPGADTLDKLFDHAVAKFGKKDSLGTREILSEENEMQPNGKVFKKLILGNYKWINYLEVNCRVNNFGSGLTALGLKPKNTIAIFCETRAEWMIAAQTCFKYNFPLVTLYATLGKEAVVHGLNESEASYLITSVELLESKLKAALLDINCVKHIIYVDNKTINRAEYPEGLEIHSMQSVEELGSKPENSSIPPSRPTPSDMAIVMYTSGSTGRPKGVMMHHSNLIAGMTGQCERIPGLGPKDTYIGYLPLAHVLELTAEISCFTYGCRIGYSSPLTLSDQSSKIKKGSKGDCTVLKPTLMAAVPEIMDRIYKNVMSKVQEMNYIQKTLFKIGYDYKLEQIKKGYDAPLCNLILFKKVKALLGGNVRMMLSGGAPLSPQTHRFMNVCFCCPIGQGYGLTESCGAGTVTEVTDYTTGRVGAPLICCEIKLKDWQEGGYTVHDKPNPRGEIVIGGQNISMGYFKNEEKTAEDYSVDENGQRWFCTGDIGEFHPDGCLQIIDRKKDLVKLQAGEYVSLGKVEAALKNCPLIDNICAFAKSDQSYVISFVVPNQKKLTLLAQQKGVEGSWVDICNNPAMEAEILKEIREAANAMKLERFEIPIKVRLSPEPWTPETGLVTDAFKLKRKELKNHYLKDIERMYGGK

Ki [1] | SMILES | Km [2]
11.4 ± 1.28 mM | CCCC(C(=O)O)C(C)C (racemic) [PIA, 2-isopropylpentanoic acid] | 
 | CCCCC/C=C\C/C=C\C/C=C\C/C=C\CCCC(=O)O [AA, arachidonic acid] | 4.12 ± 0.56 µM
